Assay results from patent US5672715A, “Herbicidal substituted 3-aryl-pyrazoles” (Monsanto Company, priority 1995, dated 1997).

Experiments:
Format in all cases: in vivo
[1] = test system: Morning Glory; assay: pre-emergence herbicide test; conditions: Ipomoea, pre-emergence, 0.25 lb/A; read-out: % plant inhibition
In short: (§1)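 Greenhouse pan assay in which seeds lie under a treated topsoil cover; carrier was acetone or water. Inhibition (%) was recorded about 14 days post-treatment.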

[2] = test system: Bedstraw Catchweed; assay: pre-emergence herbicide test; conditions: Galium aparine, pre-emergence, 0.25 lb/A; read-out: % plant inhibition
In short: as §1

[3] = test system: Soybean; assay: pre-emergence herbicide test; conditions: Glycine max, pre-emergence, 0.25 lb/A; read-out: % plant inhibition
In short: as §1

[4] = test system: Seedling Johnsongrass; assay: pre-emergence herbicide test; conditions: Sorghum halepense, pre-emergence, 0.25 lb/A; read-out: % plant inhibition
In short: as §1

[5] = test system: Velvetleaf; assay: pre-emergence herbicide test; conditions: Abutilon theophrasti, pre-emergence, 0.25 lb/A; read-out: % plant inhibition
In short: as §1

[6] = test system: Birdseye Speedwell; assay: pre-emergence herbicide test; conditions: pre-emergence, 0.25 lb/A; read-out: % plant inhibition
In short: as §1

[7] = test system: Common Chickweed; assay: pre-emergence herbicide test; conditions: pre-emergence, 0.25 lb/A; read-out: % plant inhibition
In short: as §1

[8] = test system: Downy Brome; assay: pre-emergence herbicide test; conditions: Bromus tectorum, pre-emergence, 0.25 lb/A; read-out: % plant inhibition
In short: as §1

[9] = test system: Cocklebur; assay: pre-emergence herbicide test; conditions: Xanthium strumarium, pre-emergence, 0.25 lb/A; read-out: % plant inhibition
In short: as §1

[10] = test system: Wild Oats; assay: pre-emergence herbicide test; conditions: Avena fatua, pre-emergence, 0.25 lb/A; read-out: % plant inhibition
In short: as §1

[11] = test system: Giant Foxtail; assay: pre-emergence herbicide test; conditions: Setaria faberi, pre-emergence, 0.25 lb/A; read-out: % plant inhibition
In short: as §1

[12] = test system: Blackgrass; assay: pre-emergence herbicide test; conditions: Alopecurus myosuroides, pre-emergence, 0.25 lb/A; read-out: % plant inhibition
In short: as §1

[13] = test system: Wheat; assay: pre-emergence herbicide test; conditions: Triticum aestivum, pre-emergence, 0.25 lb/A; read-out: % plant inhibition
In short: as §1

[14] = test system: Barnyardgrass; assay: pre-emergence herbicide test; conditions: Echinochloa crus-galli, pre-emergence, 0.25 lb/A; read-out: % plant inhibition
In short: as §1

[15] = test system: Corn; assay: pre-emergence herbicide test; conditions: Zea mays, pre-emergence, 0.25 lb/A; read-out: % plant inhibition
In short: as §1

[16] = test system: Green Foxtail; assay: pre-emergence herbicide test; conditions: Setaria viridis, pre-emergence; 0.25 lb/A; read-out: % plant inhibition
In short: as §1

[17] = test system: Rape; assay: pre-emergence herbicide test; conditions: pre-emergence, 0.25 lb/A; read-out: % plant inhibition
In short: as §1

[18] = test system: Morning Glory; assay: post-emergence herbicide test; conditions: Ipomoea, post-emergence, 0.25 lb/A; read-out: % plant inhibition
In short: (§2)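 Post-emergence activity is given as percent inhibition per species. Test compounds were atomizer-sprayed at 170.3 kPa, 1870 L/Ha carrier volume and roughly 0.4% v/v emulsifier onto greenhouse-raised plants aged two to three weeks, at the stated rates.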

[19] = test system: Bedstraw Catchweed; assay: post-emergence herbicide test; conditions: Galium aparine, post-emergence, 0.25 lb/A; read-out: % plant inhibition
In short: as §2

[20] = test system: Soybean; assay: post-emergence herbicide test; conditions: Glycine max, post-emergence, 0.25 lb/A; read-out: % plant inhibition
In short: as §2

[21] = test system: Seedling Johnsongrass; assay: post-emergence herbicide test; conditions: Sorghum halepense, post-emergence, 0.25 lb/A; read-out: % plant inhibition
In short: as §2

[22] = test system: Velvetleaf; assay: post-emergence herbicide test; conditions: Abutilon theophrasti, post-emergence, 0.25 lb/A; read-out: % plant inhibition
In short: as §2

[23] = test system: Birdseye Speedwell; assay: post-emergence herbicide test; conditions: post-emergence, 0.25 lb/A; read-out: % plant inhibition
In short: as §2

[24] = test system: Common Chickweed; assay: post-emergence herbicide test; conditions: post-emergence, 0.25 lb/A; read-out: % plant inhibition
In short: as §2

[25] = test system: Downy Brome; assay: post-emergence herbicide test; conditions: Bromus tectorum, post-emergence, 0.25 lb/A; read-out: % plant inhibition
In short: as §2

[26] = test system: Cocklebur; assay: post-emergence herbicide test; conditions: Xanthium strumarium, post-emergence, 0.25 lb/A; read-out: % plant inhibition
In short: as §2

[27] = test system: Wild Oats; assay: post-emergence herbicide test; conditions: Avena fatua, post-emergence, 0.25 lb/A; read-out: % plant inhibition
In short: as §2

[28] = test system: Giant Foxtail; assay: post-emergence herbicide test; conditions: Setaria faberi, post-emergence, 0.25 lb/A; read-out: % plant inhibition
In short: as §2

[29] = test system: Blackgrass; assay: post-emergence herbicide test; conditions: Alopecurus myosuroides, post-emergence, 0.25 lb/A; read-out: % plant inhibition
In short: as §2

[30] = test system: Wheat; assay: post-emergence herbicide test; conditions: Triticum aestivum, post-emergence, 0.25 lb/A; read-out: % plant inhibition
In short: as §2

[31] = test system: Barnyardgrass; assay: post-emergence herbicide test; conditions: Echinochloa crus-galli, post-emergence, 0.25 lb/A; read-out: % plant inhibition
In short: as §2

[32] = test system: Corn; assay: post-emergence herbicide test; conditions: Zea mays, post-emergence, 0.25 lb/A; read-out: % plant inhibition
In short: as §2

[33] = test system: Green Foxtail; assay: post-emergence herbicide test; conditions: Setaria viridis, post-emergence, 0.25 lb/A; read-out: % plant inhibition
In short: as §2

[34] = test system: Rape; assay: post-emergence herbicide test; conditions: post-emergence, 0.25 lb/A; read-out: % plant inhibition
In short: as §2

Row | Compound | inhibition at 280.212 g/ha [1] | inhibition at 280.212 g/ha [2] | inhibition at 280.212 g/ha [3] | inhibition at 280.212 g/ha [4] | inhibition at 280.212 g/ha [5] | inhibition at 280.212 g/ha [6] | inhibition at 280.212 g/ha [7] | inhibition at 280.212 g/ha [8] | inhibition at 280.212 g/ha [9] | inhibition at 280.212 g/ha [10] | inhibition at 280.212 g/ha [11] | inhibition at 280.212 g/ha [12] | inhibition at 280.212 g/ha [13] | inhibition at 280.212 g/ha [14] | inhibition at 280.212 g/ha [15] | inhibition at 280.212 g/ha [16] | inhibition at 280.212 g/ha [17] | inhibition at 280.212 g/ha [18] | inhibition at 280.212 g/ha [19] | inhibition at 280.212 g/ha [20] | further results
1 | CC(=O)CCCOC(=O)c1cc(-c2nn(C)c(C(F)(F)F)c2C)c(F)cc1Cl [Compound 53] | 80% | 50% | 0% | 75% | 85% | 70% | 40% | 15% | 15% | 5% | 9% | 15% | 0% | 85% | 5% | 100% | 5% | 99% | 95% | 75% | inhibition at 280.212 g/ha [21]: 75%; inhibition at 280.212 g/ha [22]: 100%; inhibition at 280.212 g/ha [23]: 95%; inhibition at 280.212 g/ha [24]: 90%; inhibition at 280.212 g/ha [25]: 45%; inhibition at 280.212 g/ha [26]: 100%; inhibition at 280.212 g/ha [27]: 40%; inhibition at 280.212 g/ha [28]: 75%; inhibition at 280.212 g/ha [29]: 25%; inhibition at 280.212 g/ha [30]: 16%; inhibition at 280.212 g/ha [31]: 70%; inhibition at 280.212 g/ha [32]: 7%; inhibition at 280.212 g/ha [33]: 80%; inhibition at 280.212 g/ha [34]: 98%
2 | Cc1c(-c2cc(C(=O)NC(C)C)c(Cl)cc2F)nn(C)c1C(F)(F)F [Compound 22] | 5% | 100% | 25% | 97% | 40% | 100% | 100% | 40% | 25% | 85% | 98% | 85% | 6% | 95% | 5% | 100% | 90% | 40% | 45% | 50% | inhibition at 280.212 g/ha [21]: 60%; inhibition at 280.212 g/ha [22]: 90%; inhibition at 280.212 g/ha [23]: 40%; inhibition at 280.212 g/ha [24]: 40%; inhibition at 280.212 g/ha [25]: 15%; inhibition at 280.212 g/ha [26]: 65%; inhibition at 280.212 g/ha [27]: 10%; inhibition at 280.212 g/ha [28]: 75%; inhibition at 280.212 g/ha [29]: 5%; inhibition at 280.212 g/ha [30]: 0%; inhibition at 280.212 g/ha [31]: 30%; inhibition at 280.212 g/ha [32]: 5%; inhibition at 280.212 g/ha [33]: 20%; inhibition at 280.212 g/ha [34]: 10%
3 | Cc1c(-c2cc(C(=O)OCc3ccco3)c(Cl)cc2F)nn(C)c1C(F)(F)F [Compound 57] | 90% | 80% | 0% | 15% | 90% | 60% | 20% | 20% | 10% | 5% | 10% | 15% | 0% | 50% | 0% | 85% | 0% | 50% | 40% | 17% | inhibition at 280.212 g/ha [21]: 35%; inhibition at 280.212 g/ha [22]: 100%; inhibition at 280.212 g/ha [23]: 100%; inhibition at 280.212 g/ha [24]: 55%; inhibition at 280.212 g/ha [25]: 15%; inhibition at 280.212 g/ha [26]: 85%; inhibition at 280.212 g/ha [27]: 25%; inhibition at 280.212 g/ha [28]: 15%; inhibition at 280.212 g/ha [29]: 15%; inhibition at 280.212 g/ha [30]: 8%; inhibition at 280.212 g/ha [31]: 35%; inhibition at 280.212 g/ha [32]: 3%; inhibition at 280.212 g/ha [33]: 40%; inhibition at 280.212 g/ha [34]: 15%
